The subject of test [1] is tumor necrosis factor (α). The experiment in a line: Cytokine Induction in Human Cells: tumor necrosis factor induction in PBMC. In kind it is cell-based. More on the design: key to Lowest Effective Concentration (μM) Tumor Necrosis Factor: *: no induction was seen at any of the tested concentrations; generally the highest concentration tested was 10 or 30 μM. The note with it: 18 to 24 hours incubation, tested 30–0.014 μM, ELISA or IGEN assay; for minimal effective concentration: read-out: Lowest Effective Concentration (μM) Tumor Necrosis Factor. The text has this:
(§1) An in vitro human blood cell system is used to assess cytokine induction. Activity is based on the measurement of interferon and tumor necrosis factor (α) (IFN and TNF, respectively) secreted into culture media as described by Testerman et. al. In “Cytokine Induction by the Immunomodulators Imiquimod and S-27609”, Journal of Leukocyte Biology, 58, 365–372 (September, 1995).
(§2) Whole blood from healthy human donors is collected by venipuncture into EDTA vacutainer tubes. Peripheral blood mononuclear cells (PBMC) are separated from whole blood by density gradient centrifugation using Histopaque®-1077. Blood is diluted 1:1 with Dulbecco's Phosphate Buffered Saline (DPBS) or Hank's Balanced Salts Solution (HBSS). The PBMC layer is collected and washed twice with DPBS or HBSS and resuspended at 4×10^6 cells/mL in RPMI complete. The PBMC suspension is added to 48 well flat bottom sterile tissue culture plates (Costar, Cambridge, Mass. or Becton Dickinson Labware, Lincoln Park, N.J.) containing an equal volume of RPMI complete media containing test compound.
(§3) The compounds are solubilized in dimethyl sulfoxide (DMSO). The DMSO concentration should not exceed a final concentration of 1% for addition to the culture wells. The compounds are generally tested at concentrations ranging from 30–0.014 μM.
(§4) The solution of test compound is added at 60 μM to the first well containing RPMI complete and serial 3 fold dilutions are made in the wells. The PBMC suspension is then added to the wells in an equal volume, bringing the test compound concentrations to the desired range (30–0.014 μM). The final concentration of PBMC suspension is 2×10^6 cells/mL. The plates are covered with sterile plastic lids, mixed gently and then incubated for 18 to 24 hours at 37° C. in a 5% carbon dioxide atmosphere.
(§5) Following incubation the plates are centrifuged for 10 minutes at 1000 rpm (˜200×g) at 4° C. The cell-free culture supernatant is removed with a sterile polypropylene pipet and transferred to sterile polypropylene tubes. Samples are maintained at −30 to −70° C. until analysis. The samples are analyzed for interferon (α) by ELISA and for tumor necrosis factor (α) by ELISA or IGEN Assay
Tumor necrosis factor (α) (TNF) concentration is determined using ELISA kits available from Biosource International, Camarillo, Calif. Alternately, the TNF concentration can be determined by Origen® M-Series Immunoassay and read on an IGEN M-8 analyzer from IGEN International, Gaithersburg, Md. The immunoassay uses a human TNF capture and detection antibody pair from Biosource International, Camarillo, Calif. Results are expressed in pg/mL.
(§6) The table below lists the lowest concentration found to induce interferon and the lowest concentration found to induce tumor necrosis factor for each compound.

For another test, the system named is interferon (α). The experiment in a line: Cytokine Induction in Human Cells: interferon induction in PBMC. The format is cell-based. More on the design: key to Lowest Effective Concentration (μM) Interferon: *: no induction was seen at any of the tested concentrations; generally the highest concentration tested was 10 or 30 μM. Conditions: 18 to 24 hours incubation, tested 30–0.014 μM, ELISA; for minimal effective concentration: read-out: Lowest Effective Concentration (μM) Interferon.
Source text: as §1, §2, §3, §4, §5
Interferon (α) and Tumor Necrosis Factor (α) Analysis by ELISA Interferon (α) concentration is determined by ELISA using a Human Multi-Species kit from PBL Biomedical Laboratories, New Brunswick, N.J. Results are expressed in pg/mL.
as §6
In general terms: ELISA stands for enzyme-linked immunosorbent assay.

Each structure is given as a SMILES string.

As for `CN(C(=O)CCCCOCCn1cnc2c(N)nc3ccccc3c21)c1ccccc1` [Example 12, 5-[2-(4-amino-1H-imidazo[4,5-c]quinolin-1-yl)ethoxy]-N-methyl-N-phenylpentanamide], in test [1], the “Lowest Effective Concentration (μM) Tumor Necrosis Factor” value is “*”. Moreover, in the test on interferon (α), the minimal effective concentration worked out at 3.33 µM.
In the case of `CCCCN(C(=O)CCCCOCCn1cnc2c(N)nc3ccccc3c21)c1ccccc1` [Example 13, 5-[2-(4-amino-1H-imidazo[4,5-c]quinolin-1-yl)ethoxy]-N-butyl-N-phenylpentanamide], in test [1], the “Lowest Effective Concentration (μM) Tumor Necrosis Factor” value was “*”. Also, the minimal effective concentration in the test on interferon (α) turned out to be 10 µM.
Take `CCCCc1nc2c(N)nc3ccccc3c2n1CCOCCNC(=O)C1CC1` [Example 15]: the minimal effective concentration in test [1] was found to be 1 µM; in the test with interferon (α) it was 0.1 µM.
Taken in the same sequence, the figures for `CCCCC(=O)NCCOCCn1c(CCCC)nc2c(N)nc3ccccc3c21` [Example 16] were 1 µM and 0.1 µM.
Taken in the same sequence, the figures for `CCCCc1nc2c(N)nc3ccccc3c2n1CCOCCNC(=O)C1CCCC1` [Example 17] were 1 µM and 1 µM.
Taken in the same sequence, the figures for `CCCCc1nc2c(N)nc3ccccc3c2n1CCOCCNC(=O)c1ccccc1` [Example 18] were 10 µM and 1 µM.
Turning to `CCCCc1nc2c(N)nc3ccccc3c2n1CCOCCNC(=O)C1CCCCC1` [Example 19], the values for the minimal effective concentration (in test [1]; in the test on interferon (α)) were 10 µM and 1 µM, respectively.
Turning to `CCCCc1nc2c(N)nc3ccccc3c2n1CCOCCNC(=O)Cc1ccccc1` [Example 20], the minimal effective concentration in test [1] was determined as 10 µM; in the test with interferon (α) it was 0.1 µM.
Taken in the same sequence, the figures for `CCCCc1nc2c(N)nc3ccccc3c2n1CCOCCNC(=O)c1ccc(F)cc1` [Example 21] were 10 µM and 1 µM.
Taken in the same sequence, the figures for `CCCCc1nc2c(N)nc3ccccc3c2n1CCOCCNC(=O)Cc1cccs1` [Example 22] were 10 µM and 0.1 µM.
Taken in the same sequence, the figures for `CCCCc1nc2c(N)nc3ccccc3c2n1CCOCCNC(=O)c1ccc(C#N)cc1` [Example 23] were 10 µM and 1 µM.
With `CCCCc1nc2c(N)nc3ccccc3c2n1CCOCCNC(=O)c1cccc(C#N)c1` [Example 24], the minimal effective concentration in test [1] was 10 µM; in the test on interferon (α), 1 µM.
Taken in the same sequence, the figures for `CCCCc1nc2c(N)nc3ccccc3c2n1CCOCCNC(=O)CCc1ccccc1` [Example 25] were 10 µM and 1 µM.
Taken in the same sequence, the figures for `CCCCc1nc2c(N)nc3ccccc3c2n1CCOCCNC(=O)c1cccc(OC)c1` [Example 26] were 10 µM and 1 µM.
Taken in the same sequence, the figures for `CCCCc1nc2c(N)nc3ccccc3c2n1CCOCCNC(=O)c1ccc(OC)cc1` [Example 27] were 10 µM and 1 µM.
As for `CCCCc1nc2c(N)nc3ccccc3c2n1CCOCCNC(=O)c1ccc(Cl)nc1` [Example 28], the minimal effective concentration in test [1] worked out at 10 µM; in the test on interferon (α), 1 µM.
Taken in the same sequence, the figures for `CCCCc1nc2c(N)nc3ccccc3c2n1CCOCCNC(=O)[C@@H]1C[C@H]1c1ccccc1` [Example 29] were 10 µM and 1 µM.
For the molecule `CCCCc1nc2c(N)nc3ccccc3c2n1CCOCCNC(=O)COCc1ccccc1` [Example 30], the minimal effective concentration in test [1] was found to be 10 µM; with interferon (α) it was 1 µM.
Consider `CCCCc1nc2c(N)nc3ccccc3c2n1CCOCCNC(=O)c1cccc2ccccc12` [Example 31], for which the minimal effective concentration in test [1] came to 10 µM. Besides, the “Lowest Effective Concentration (μM) Interferon” value in the test with interferon (α) is recorded as “*”.
As to `CCCCc1nc2c(N)nc3ccccc3c2n1CCOCCNC(=O)c1cccc(C(F)(F)F)c1` [Example 32], in test [1], the minimal effective concentration was 10 µM. Besides, the “Lowest Effective Concentration (μM) Interferon” value in the test on interferon (α) was “*”.

For the origin of these results see patent US7115622B2, “Amido ether substituted imidazoquinolines” (3M Innovative Properties Company, priority 2000, dated 2006).
